Results published in patent publication US9587005B2 (priority 2010, dated 2017).
Where two headings read alike, the source gives them in different places. *1 amine or outer side, *2 acyl side, *3 side chain or, on linkers, in order; H or OH if unused. Where a SMILES comes first, the peptide text is derived from it. Side-chain parts run from the residue outwards. [ ]: non-standard residue; d: D form. The star is where a group is joined. X5 = CCCCCCCCCCCCCCCC(=O)N[C@@H](CCC(=O)NCCCC[C@H](NC(=O)CC[C@H](NC(=O)CCCCCCCCCCCCCCC)C(=O)O)C(=O)*)C(=O)O; γGlu = O=C(O)[C@H](CCC(=O)[*:2])N[*:1]; Palmitoyl = CCCCCCCCCCCCCCCC(=O)*; Aib = CC(C)(N)C(=O)O

Tests used:
Format in all cases: cell-based
glucagon receptor = molecular target: T1, glucagon receptor (Homo sapiens, UniProt P47871); test: cAMP induction, firefly luciferase reporter assay in HEK293 cells co-transfected with glucagon receptor
T1 construct: expressed in transfected cells; host or cells: HEK293
T1 sequence (P47871 26-477): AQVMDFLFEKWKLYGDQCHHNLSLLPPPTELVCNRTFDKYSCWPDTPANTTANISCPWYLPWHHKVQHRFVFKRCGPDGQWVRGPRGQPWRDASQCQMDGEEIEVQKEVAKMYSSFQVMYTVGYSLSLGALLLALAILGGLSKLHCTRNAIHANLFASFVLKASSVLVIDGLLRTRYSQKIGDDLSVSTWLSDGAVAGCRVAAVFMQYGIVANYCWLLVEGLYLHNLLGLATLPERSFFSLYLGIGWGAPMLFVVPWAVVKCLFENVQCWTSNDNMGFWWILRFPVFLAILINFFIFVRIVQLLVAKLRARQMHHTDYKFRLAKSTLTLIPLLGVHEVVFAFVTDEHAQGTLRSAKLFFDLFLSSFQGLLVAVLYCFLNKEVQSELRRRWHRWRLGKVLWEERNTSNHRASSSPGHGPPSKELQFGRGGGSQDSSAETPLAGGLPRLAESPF
From the text: (§1) This example describes an exemplary method of testing the biological activity of the peptides of the present disclosures, which method involves assaying cAMP synthesis.

GLP-1 receptor = molecular target: T2, GLP-1 receptor (Homo sapiens, UniProt P43220); test: cAMP induction, firefly luciferase reporter assay in HEK293 cells co-transfected with GLP-1 receptor
T2 construct: expressed in transfected cells; host or cells: HEK293
T2 sequence (P43220 24-463): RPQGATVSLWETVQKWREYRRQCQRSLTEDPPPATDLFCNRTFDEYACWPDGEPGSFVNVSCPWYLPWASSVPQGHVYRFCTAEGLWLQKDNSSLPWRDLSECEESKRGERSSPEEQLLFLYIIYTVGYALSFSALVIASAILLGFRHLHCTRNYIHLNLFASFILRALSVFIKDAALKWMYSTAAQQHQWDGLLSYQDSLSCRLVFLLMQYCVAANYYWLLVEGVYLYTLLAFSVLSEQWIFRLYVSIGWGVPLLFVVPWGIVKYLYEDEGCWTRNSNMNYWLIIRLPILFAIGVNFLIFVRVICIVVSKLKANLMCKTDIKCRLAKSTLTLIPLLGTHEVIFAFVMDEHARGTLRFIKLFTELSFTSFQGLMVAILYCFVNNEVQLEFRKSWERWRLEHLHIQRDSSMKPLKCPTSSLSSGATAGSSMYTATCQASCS
From the text: as §1

GIP receptor = molecular target: T3, GIP receptor (Homo sapiens, UniProt P48546); test: cAMP induction, firefly luciferase reporter assay in HEK293 cells co-transfected with GIP receptor
T3 sequence (P48546 22-466): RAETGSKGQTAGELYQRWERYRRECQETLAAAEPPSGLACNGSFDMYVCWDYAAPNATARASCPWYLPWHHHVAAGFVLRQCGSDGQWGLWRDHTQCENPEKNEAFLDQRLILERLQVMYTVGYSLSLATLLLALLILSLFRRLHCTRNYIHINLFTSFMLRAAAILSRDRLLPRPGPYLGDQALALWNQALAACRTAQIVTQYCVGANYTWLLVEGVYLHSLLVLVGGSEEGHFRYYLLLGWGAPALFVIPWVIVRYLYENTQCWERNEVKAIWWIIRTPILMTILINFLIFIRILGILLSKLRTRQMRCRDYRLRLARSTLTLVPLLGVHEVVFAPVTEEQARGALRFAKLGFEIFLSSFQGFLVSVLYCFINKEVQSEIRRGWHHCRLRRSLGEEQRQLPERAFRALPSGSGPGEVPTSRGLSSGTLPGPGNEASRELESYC

[1] = EC50 (cAMP, nmole) GIPR, Table 12, Example 19
[2] = EC50 (nM) at glucagon receptor, Table 16, Example 24
[3] = EC50 (nM) at GLP-1 receptor, Table 16, Example 24
[4] = EC50 (nM) at GIP receptor, Table 16, Example 24
[5] = EC50 (nM) at Glucagon Receptor, Table 4, Example 9, composite of multiple different activity assays
[6] = EC50 (nM) at Glucagon Receptor, Table 7, Example 13
[7] = EC50 (nM) at GLP-1 Receptor, Table 4, Example 9, composite of multiple different activity assays
[8] = EC50 (nM) at GIP Receptor, Table 4, Example 9, composite of multiple different activity assays
[9] = EC50 (nM) at GIP Receptor, Table 7, Example 13

Row | SMILES | EC50 (GIP receptor; [1]) [nM] | EC50 (glucagon receptor; [2]) [nM] | EC50 (GLP-1 receptor; [3]) [nM] | EC50 (GIP receptor; [4]) [nM] | EC50 (glucagon receptor; [5]) [nM] | EC50 (glucagon receptor; [6]) [nM] | EC50 (GLP-1 receptor; [7]) [nM] | EC50 (GIP receptor; [8]) [nM] | EC50 (GIP receptor; [9]) [nM] | other results
1 | CCCCCCCCCCCCCCCC(=O)N[C@@H](CCC(=O)NCCCC[C@H](NC(=O)CC[C@H](NC(=O)CCCCCCCCCCCCCCC)C(=O)O)C(=O)NCCCC[C@H](NC(=O)[C@H](CO)NC(=O)[C@@H]1CCCN1C(=O)[C@@H]1CCCN1C(=O)[C@@H]1CCCN1C(=O)[C@H](C)NC(=O)CNC(=O)[C@H](CO)NC(=O)[C@H](CO)NC(=O)[C@@H]1CCCN1C(=O)CNC(=O)CNC(=O)[C@H](CC(=O)O)NC(=O)[C@H](CC(C)C)NC(=O)[C@H](CC(C)C)NC(=O)[C@H](Cc1c[nH]c2ccccc12)NC(=O)[C@H](CCC(N)=O)NC(=O)[C@@H](NC(=O)[C@H](Cc1ccccc1)NC(=O)[C@H](CC(=O)O)NC(=O)[C@H](CCC(N)=O)NC(=O)[C@H](C)NC(=O)[C@H](C)NC(=O)[C@H](CCCNC(=N)N)NC(=O)[C@H](CCC(=O)O)NC(=O)[C@H](CC(=O)O)NC(=O)[C@H](CC(C)C)NC(=O)[C@H](Cc1ccc(O)cc1)NC(=O)[C@H](CCCCN)NC(=O)[C@H](CO)NC(=O)[C@H](Cc1ccc(O)cc1)NC(=O)[C@H](CC(=O)O)NC(=O)[C@H](CO)NC(=O)[C@@H](NC(=O)[C@H](Cc1ccccc1)NC(=O)[C@@H](NC(=O)CNC(=O)[C@H](CCC(N)=O)NC(=O)C(C)(C)NC(=O)[C@@H](N)Cc1c[nH]cn1)[C@@H](C)O)[C@@H](C)O)C(C)C)C(N)=O)C(=O)O [SEQ ID NO: 161] (H-H[Aib]QGTFTSDYSKYLDERAAQDFVQWLLDGGPSSGAPPPSK(X5)-NH2) | 0.01 | – | – | – | – | – | – | – | – | EC50 (glucagon receptor; Table 12, Example 19, read-out: EC50 (cAMP, nmole) GCGR): 0.011 nM; EC50 (GLP-1 receptor; Table 12, Example 19, read-out: EC50 (cAMP, nmole) GLPR): 0.007 nM
2 | CCCCCCCCCCCCCCCC(=O)N[C@@H](CCC(=O)NCCCCCCCCCCCC(=O)NCCCC[C@H](NC(=O)[C@H](CC(=O)O)NC(=O)[C@H](CO)NC(=O)[C@@H](NC(=O)[C@H](Cc1ccccc1)NC(=O)[C@@H](NC(=O)CNC(=O)[C@H](CCC(N)=O)NC(=O)C(C)(C)NC(=O)[C@@H](N)Cc1c[nH]cn1)[C@@H](C)O)[C@@H](C)O)C(=O)N[C@@H](CO)C(=O)N[C@@H](CCCCN)C(=O)N[C@@H](Cc1ccc(O)cc1)C(=O)N[C@@H](CC(C)C)C(=O)N[C@@H](CC(=O)O)C(=O)N[C@@H](CCC(=O)O)C(=O)N[C@@H](CCCNC(=N)N)C(=O)N[C@@H](C)C(=O)N[C@@H](C)C(=O)N[C@@H](CCC(N)=O)C(=O)N[C@@H](CC(=O)O)C(=O)N[C@@H](Cc1ccccc1)C(=O)N[C@H](C(=O)N[C@@H](CCC(N)=O)C(=O)N[C@@H](Cc1c[nH]c2ccccc12)C(=O)N[C@@H](CC(C)C)C(=O)N[C@@H](CC(C)C)C(=O)N[C@@H](CC(=O)O)C(=O)NCC(=O)NCC(=O)N1CCC[C@H]1C(=O)N[C@@H](CO)C(=O)N[C@@H](CO)C(=O)NCC(=O)N[C@@H](C)C(=O)N1CCC[C@H]1C(=O)N1CCC[C@H]1C(=O)N1CCC[C@H]1C(=O)N[C@@H](CO)C(N)=O)C(C)C)C(=O)O [SEQ ID NO: 162] | 0.033 | – | – | – | – | – | – | – | – | EC50 (glucagon receptor): 0.008 nM; EC50 (GLP-1 receptor; EC50 (cAMP, nmole) GLPR, Table 12, Example 19): 0.003 nM
3 | CCCCCCCCCCCCCCCC(=O)N[C@@H](CCC(=O)NCCCC[C@H](NC(=O)[C@H](CC(=O)O)NC(=O)[C@H](CO)NC(=O)[C@@H](NC(=O)[C@H](Cc1ccccc1)NC(=O)[C@@H](NC(=O)CNC(=O)[C@H](CCC(N)=O)NC(=O)C(C)(C)NC(=O)[C@@H](N)Cc1c[nH]cn1)[C@@H](C)O)[C@@H](C)O)C(=O)N[C@@H](CO)C(=O)N[C@@H](CCCCN)C(=O)N[C@@H](Cc1ccc(O)cc1)C(=O)N[C@@H](CC(C)C)C(=O)N[C@@H](CC(=O)O)C(=O)N[C@@H](CCC(=O)O)C(=O)N[C@@H](CCCNC(=N)N)C(=O)N[C@@H](C)C(=O)N[C@@H](C)C(=O)N[C@@H](CCC(N)=O)C(=O)N[C@@H](CC(=O)O)C(=O)N[C@@H](Cc1ccccc1)C(=O)N[C@H](C(=O)N[C@@H](CCC(N)=O)C(=O)N[C@@H](Cc1c[nH]c2ccccc12)C(=O)N[C@@H](CC(C)C)C(=O)N[C@@H](CC(C)C)C(=O)N[C@@H](CC(=O)O)C(=O)NCC(=O)NCC(=O)N1CCC[C@H]1C(=O)N[C@@H](CO)C(=O)N[C@@H](CO)C(=O)NCC(=O)N[C@@H](C)C(=O)N1CCC[C@H]1C(=O)N1CCC[C@H]1C(=O)N1CCC[C@H]1C(=O)N[C@@H](CO)C(=O)NCC(N)=O)C(C)C)C(=O)O [SEQ ID NO: 205] (H-H[Aib]QGTFTSDK([γGlu-Palmitoyl])SKYLDERAAQDFVQWLLDGGPSSGAPPPSG-NH2) | – | 0.005 | 0.002 | 0.004 | – | – | – | – | – | –
4 | CCCCCCCCCCCCCCCC(=O)N[C@@H](CCC(=O)N[C@@H](CCC(=O)NCCCC[C@H](NC(=O)[C@H](CC(=O)O)NC(=O)[C@H](CO)NC(=O)[C@@H](NC(=O)[C@H](Cc1ccccc1)NC(=O)[C@@H](NC(=O)CNC(=O)[C@H](CCC(N)=O)NC(=O)C(C)(C)NC(=O)[C@@H](N)Cc1c[nH]cn1)[C@@H](C)O)[C@@H](C)O)C(=O)N[C@@H](CO)C(=O)N[C@@H](CCCCN)C(=O)N[C@@H](Cc1ccc(O)cc1)C(=O)N[C@@H](CC(C)C)C(=O)N[C@@H](CC(=O)O)C(=O)N[C@@H](CCC(=O)O)C(=O)N[C@@H](CCCNC(=N)N)C(=O)N[C@@H](C)C(=O)N[C@@H](C)C(=O)N[C@@H](CCC(N)=O)C(=O)N[C@@H](CC(=O)O)C(=O)N[C@@H](Cc1ccccc1)C(=O)N[C@H](C(=O)N[C@@H](CCC(N)=O)C(=O)N[C@@H](Cc1c[nH]c2ccccc12)C(=O)N[C@@H](CC(C)C)C(=O)N[C@@H](CC(C)C)C(=O)N[C@@H](CC(=O)O)C(=O)NCC(=O)NCC(=O)N1CCC[C@H]1C(=O)N[C@@H](CO)C(=O)N[C@@H](CO)C(=O)NCC(=O)N[C@@H](C)C(=O)N1CCC[C@H]1C(=O)N1CCC[C@H]1C(=O)N1CCC[C@H]1C(=O)N[C@@H](CO)C(=O)NCC(N)=O)C(C)C)C(=O)O)C(=O)O [SEQ ID NO: 207] (H-H[Aib]QGTFTSDK([γGlu-γGlu-Palmitoyl])SKYLDERAAQDFVQWLLDGGPSSGAPPPSG-NH2; N-terminus assumed) | – | 0.005 | 0.002 | 0.015 | – | – | – | – | – | –
5 | CCCCCCCCCCCCCCCC(=O)N[C@@H](CCC(=O)NCCCC[C@H](NC(=O)[C@H](CC(=O)O)NC(=O)[C@H](CO)NC(=O)[C@@H](NC(=O)[C@H](Cc1ccccc1)NC(=O)[C@@H](NC(=O)CNC(=O)[C@H](CCC(N)=O)NC(=O)C(C)(C)NC(=O)[C@@H](N)Cc1c[nH]cn1)[C@@H](C)O)[C@@H](C)O)C(=O)N[C@@H](CO)C(=O)N[C@@H](CCCCN)C(=O)N[C@@H](Cc1ccc(O)cc1)C(=O)N[C@@H](CC(C)C)C(=O)N[C@@H](CC(=O)O)C(=O)N[C@@H](CCC(=O)O)C(=O)N[C@@H](CCCNC(=N)N)C(=O)N[C@@H](C)C(=O)N[C@@H](C)C(=O)N[C@@H](CCC(N)=O)C(=O)N[C@@H](CC(=O)O)C(=O)N[C@@H](Cc1ccccc1)C(=O)N[C@H](C(=O)N[C@@H](CCC(N)=O)C(=O)N[C@@H](Cc1c[nH]c2ccccc12)C(=O)N[C@@H](CC(C)C)C(=O)N[C@@H](CC(C)C)C(=O)N[C@@H](CC(=O)O)C(=O)NCC(=O)NCC(=O)N1CCC[C@H]1C(=O)N[C@@H](CO)C(=O)N[C@@H](CO)C(=O)NCC(=O)N[C@@H](C)C(=O)N1CCC[C@H]1C(=O)N1CCC[C@H]1C(=O)N1CCC[C@H]1C(=O)N[C@@H](CO)C(N)=O)C(C)C)C(=O)O [compound 28] | – | – | – | – | 0.002 | 0.002 | 0.002 | 0.003 | 0.003 | EC50 (GLP-1 receptor; EC50 (nM) at GLP-1 Receptor, Table 7, Example 13): 0.002 nM
6 | CCCCCCCCCCCCCCCC(=O)N[C@@H](CCC(=O)NCCCC[C@H](NC(=O)[C@H](CC(=O)O)NC(=O)[C@H](CO)NC(=O)[C@@H](NC(=O)[C@H](Cc1ccccc1)NC(=O)[C@@H](NC(=O)CNC(=O)[C@H](CCC(N)=O)NC(=O)C(C)(C)NC(=O)[C@@H](N)Cc1c[nH]cn1)[C@@H](C)O)[C@@H](C)O)C(=O)N[C@@H](CO)C(=O)N[C@@H](CCCCN)C(=O)N[C@@H](Cc1ccc(O)cc1)C(=O)N[C@@H](CC(C)C)C(=O)N[C@@H](CC(=O)O)C(=O)N[C@@H](CCC(=O)O)C(=O)N[C@@H](CCCNC(=N)N)C(=O)N[C@@H](CCCNC(=N)N)C(=O)N[C@@H](C)C(=O)NC(C)(C)C(=O)N[C@@H](CCC(=O)O)C(=O)N[C@@H](Cc1ccccc1)C(=O)N[C@H](C(=O)N[C@@H](CCC(N)=O)C(=O)N[C@@H](Cc1c[nH]c2ccccc12)C(=O)N[C@@H](CC(C)C)C(=O)N[C@@H](CC(C)C)C(=O)N[C@@H](CC(=O)O)C(=O)N[C@H](C(N)=O)[C@@H](C)O)C(C)C)C(=O)O [compound 31] (H-H[Aib]QGTFTSDK([γGlu-Palmitoyl])SKYLDERRA[Aib]EFVQWLLDT-NH2; N-terminus assumed) | – | – | – | – | 0.008 | 0.008 | 0.0044 | 0.008 | 0.008 | –
